We go through 40 molecules from PMC6522912, “Evaluation of the published kinase inhibitor set to identify multiple inhibitors of bacterial ATP-dependent mur ligases” (Journal of Enzyme Inhibition and Medicinal Chemistry, 2019).

For one experiment, the target named is E. coli MurD (Escherichia coli, UniProt P14900). As to the kind of experiment: biochemical. The following applies: for remaining activity at 100 µM: 0.25 h, Table S1, PKIS screening, read-out: RA [%] at 100 µM MurD. Put shortly:
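Reaction 15 min at 37 °C, then phosphate detected with Biomol green at 650 nm. Values are residual activity versus 5% DMSO carrier controls.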

The target of another experiment is E. coli MurC (Escherichia coli, UniProt P17952). The experiment is described as follows: Malachite green inhibition assay, MurC. Format: biochemical. The note with it: for remaining activity at 100 µM: 0.25 h; for RA (%) MurC: Table S3, aza stilbene compounds.
The target of a further experiment is E. coli MurF (Escherichia coli, UniProt P11880). As to the kind of experiment: biochemical. The following applies: for remaining activity at 100 µM: 0.25 h, read-out: RA [%] at 100 µM MurF; for RA (%) MurF: Table S3, aza stilbene compounds.
Setting [1] is: Table S1, PKIS screening, read-out: RA [%] at 100 µM MurC.
[2] abbreviates: read-out: RA [%] at 100 µM MurC, Table S1, PKIS screening.

Like-named read-outs stand apart in the source and are kept apart here.

Sequence of E. coli MurD (P14900 whole entry): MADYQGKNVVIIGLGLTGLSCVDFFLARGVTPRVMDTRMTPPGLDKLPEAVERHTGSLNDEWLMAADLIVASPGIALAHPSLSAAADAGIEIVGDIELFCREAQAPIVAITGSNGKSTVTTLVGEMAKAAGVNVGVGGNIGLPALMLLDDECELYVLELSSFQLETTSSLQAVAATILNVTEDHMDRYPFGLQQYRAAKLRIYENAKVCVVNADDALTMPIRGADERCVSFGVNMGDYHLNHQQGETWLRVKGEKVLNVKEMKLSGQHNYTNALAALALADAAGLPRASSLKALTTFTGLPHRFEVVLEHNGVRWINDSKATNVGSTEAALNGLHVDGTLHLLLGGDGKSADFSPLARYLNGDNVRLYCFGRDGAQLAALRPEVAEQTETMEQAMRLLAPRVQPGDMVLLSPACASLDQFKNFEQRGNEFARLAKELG
Sequence of E. coli MurF (P11880 whole entry): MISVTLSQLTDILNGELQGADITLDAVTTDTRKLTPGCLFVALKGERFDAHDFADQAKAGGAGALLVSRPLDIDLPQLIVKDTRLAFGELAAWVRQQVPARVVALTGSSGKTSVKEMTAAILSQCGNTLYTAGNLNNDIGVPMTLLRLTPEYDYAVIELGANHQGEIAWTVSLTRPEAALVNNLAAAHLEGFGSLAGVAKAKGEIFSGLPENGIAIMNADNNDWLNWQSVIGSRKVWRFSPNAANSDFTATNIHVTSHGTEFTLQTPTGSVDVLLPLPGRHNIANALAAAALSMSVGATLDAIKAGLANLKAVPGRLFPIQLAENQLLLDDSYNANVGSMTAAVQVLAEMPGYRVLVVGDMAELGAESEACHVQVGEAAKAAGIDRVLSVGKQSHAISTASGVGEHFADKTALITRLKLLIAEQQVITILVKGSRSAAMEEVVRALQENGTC
Sequence of E. coli MurC (P17952 whole entry): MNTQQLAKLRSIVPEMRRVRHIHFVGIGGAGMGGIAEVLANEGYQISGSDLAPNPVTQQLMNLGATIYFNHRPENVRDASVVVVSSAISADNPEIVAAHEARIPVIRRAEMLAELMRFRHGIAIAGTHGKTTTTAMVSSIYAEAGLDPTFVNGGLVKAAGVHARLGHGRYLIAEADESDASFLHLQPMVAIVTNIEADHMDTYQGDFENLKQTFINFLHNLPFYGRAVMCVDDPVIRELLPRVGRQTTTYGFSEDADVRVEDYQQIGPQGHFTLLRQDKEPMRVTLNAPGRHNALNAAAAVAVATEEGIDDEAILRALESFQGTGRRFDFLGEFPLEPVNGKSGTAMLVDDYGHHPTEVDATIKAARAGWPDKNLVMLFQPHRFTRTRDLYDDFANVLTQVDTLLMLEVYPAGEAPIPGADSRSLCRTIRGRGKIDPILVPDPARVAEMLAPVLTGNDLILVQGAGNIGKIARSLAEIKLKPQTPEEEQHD

For `CN(C)CCOc1ccc(-c2nc(-c3ccncc3)c(-c3ccc4c(c3)CC/C4=N\O)[nH]2)cc1` [SB-590885-AAD], on E. coli MurD, the “RA [%] at 100 µM MurD” value was 100. On E. coli MurC (Table S1, PKIS screening), the “RA [%] at 100 µM MurC” value stood at 74%. Further, at E. coli MurF (Table S1, PKIS screening), the “RA [%] at 100 µM MurF” value was determined as 100%.
`Nc1nc(-c2cccc(Cl)c2)c(-c2ccc3ncccc3n2)s1` [GW780159X]: the remaining activity at 100 µM is 90% at E. coli MurD; 56% at E. coli MurC (setting [1]); 83% at E. coli MurF (Table S1, PKIS screening).
With `CCc1cccc(CC)c1C=Cc1cncc(C(=O)NC)c1` [Compound 12], the “RA (%) MurD” value at E. coli MurD was determined as 74%. The “RA (%) MurC” value at E. coli MurC is recorded as 67%. The “RA (%) MurF” value at E. coli MurF came out at 76%.
Take `CN1CCC(n2cnc(-c3ccc(F)cc3)c2-c2ccnc(N)n2)CC1` [SB-220455]: the remaining activity at 100 µM on E. coli MurD is 81%; on E. coli MurC (setting [2]), 76%; at E. coli MurF (Table S1, PKIS screening), 100%.
With `CN(c1ccc(NC(=O)Nc2c(Cl)cccc2Cl)cc1)c1ccnc(Nc2cccc(CS(C)(=O)=O)c2)n1` [GW809897X], the remaining activity at 100 µM on E. coli MurD came out at 55%; at E. coli MurC (setting [1]) it was 26%; on E. coli MurF (Table S1, PKIS screening) it was 51%.
Turning to `CN1CCC(n2cnc(-c3ccc(F)cc3)c2-c2ccnc(NCCO)n2)CC1` [SB-226879], the remaining activity at 100 µM on E. coli MurD was found to be 98%; on E. coli MurC (setting [2]) it was 65%; at E. coli MurF (Table S1, PKIS screening) it was 68%.
Consider `CCn1c(-c2nonc2N)nc2c(C#CC(C)(C)O)nc(OCCNC)cc21` [GSK949675A], for which the remaining activity at 100 µM turned out to be 85% on E. coli MurD; 73% on E. coli MurC (setting [1]); 74% at E. coli MurF (Table S1, PKIS screening).
Regarding `CNC(=O)c1cncc(C=Cc2c(C)cccc2C)c1` [Compound 9], on E. coli MurD, the “RA (%) MurD” value amounted to 83%. Further, the “RA (%) MurC” value at E. coli MurC is reported as 85%. Also, the “RA (%) MurF” value on E. coli MurF amounted to 54%.
For `O=C(Nc1n[nH]c2nc(-c3ccc(O)cc3)c(Br)cc12)C1CC1` [SB-725317], the remaining activity at 100 µM was 96% on E. coli MurD; 84% at E. coli MurC (setting [1]); 89% at E. coli MurF (Table S1, PKIS screening).
Taken in the same sequence, the figures for `O=C1NC(=O)C(c2ccccc2Cl)=C1Nc1cccc(O)c1` [SB-390527] were 83%, 50% and 88%.
Taken in the same sequence, the figures for `COC(=O)c1ccc2c(c1)C(=Cc1cc(Br)c(O)c(Br)c1)C(=O)N2` [GW405841X] were 82%, 93% and 75%.
Turning to `O=C1Nc2ccccc2/C1=C1\CCc2cc(O)ccc21` [GR105659X], the remaining activity at 100 µM on E. coli MurD is 100%; at E. coli MurC (setting [1]), 85%; at E. coli MurF (Table S1, PKIS screening), 100%.
`Fc1cccc(COc2ccc(Nc3ncncc3C#Cc3ccccc3)cc2Cl)c1` [GW651576X]: the remaining activity at 100 µM at E. coli MurD was determined as 43%; at E. coli MurC (setting [1]), 44%; on E. coli MurF (Table S1, PKIS screening), 91%. Also, the half-inhibitory concentration (IC50) (usually the point on the concentration scale where inhibition reaches its midpoint) at E. coli MurD (printed in the RA cell of Table S1, read-out: IC50 MurD) was determined as 90 µM; on E. coli MurC (printed in the RA cell of Table S1, read-out: IC50 MurC) it was 120 µM.
On to `c1ccc(-c2n[nH]cc2-c2ccnc(-c3ccc(OCCN4CCOCC4)cc3)c2)nc1` [GW695874X], for which the remaining activity at 100 µM on E. coli MurD worked out at 80%; on E. coli MurC (setting [1]), 79%; on E. coli MurF (Table S1, PKIS screening), 91%.
Regarding `CCn1c(-c2nonc2N)nc2c(C#CC(C)(C)O)ncc(OC[C@@H]3CCCN3)c21` [GSK614526A], the remaining activity at 100 µM on E. coli MurD came to 89%; at E. coli MurC (setting [1]), 65%; at E. coli MurF (Table S1, PKIS screening), 100%.
For the molecule `NC(=O)c1ccc(Oc2nccc(-c3c(-c4ccc(F)cc4)ncn3C3CCNCC3)n2)cc1` [SB-242718], the remaining activity at 100 µM on E. coli MurD worked out at 65%; at E. coli MurC (setting [1]), 39%; at E. coli MurF (Table S1, PKIS screening) it was 69%.
Taken in the same sequence, the figures for `O=C(Nc1n[nH]c2nc(-c3ccco3)ccc12)C1CC1` [SB-743899] were 89%, 84% and 91%.
The like results for `COC(=O)Nc1nc2ccc(Oc3ccc(NC(=O)Nc4ccccc4)cc3)cc2[nH]1` [GW694590A] were, in that order, 99%, 62% and 75%.
Regarding `COc1cc(N2CCN(C(C)C)CC2)ccc1Nc1nc(Nc2cccc(F)c2C(=O)O)c2cc[nH]c2n1` [GSK1819799A], the remaining activity at 100 µM is 37% on E. coli MurD; 0% at E. coli MurC (setting [1]); 39% at E. coli MurF (Table S1, PKIS screening).
The like results for `COC(=O)c1sc(-n2cnc3cc(OC)c(OC)cc32)cc1OCc1ccccc1C(F)(F)F` [GSK1030058A] were, in that order, 78%, 32% and 55%.
The like results for `NC(=O)Cc1ccccc1Oc1nccc(-c2c(-c3ccc(F)cc3)ncn2C2CCNCC2)n1` [SB-264865] were, in that order, 82%, 66% and 98%.
As to `COc1cc(Nc2ncc(-c3ccccc3)o2)cc(OC)c1OC` [GW627512B], the remaining activity at 100 µM on E. coli MurD worked out at 72%; at E. coli MurC (setting [1]), 98%; at E. coli MurF (Table S1, PKIS screening) it was 100%.
`CS(=O)(=O)CCNCc1coc(-c2ccc3ncnc(Nc4ccc(OCc5ccccc5)cc4)c3c2)c1` [GW566221B]: the remaining activity at 100 µM was 69% on E. coli MurD; 69% on E. coli MurC (setting [1]); 82% at E. coli MurF (Table S1, PKIS screening).
On to `NS(=O)(=O)c1ccc(Nc2ncc(-c3ccccc3)o2)cc1` [GW572399X], for which the remaining activity at 100 µM at E. coli MurD was 100%; on E. coli MurC (setting [1]), 80%; at E. coli MurF (Table S1, PKIS screening), 74%.
Taken in the same sequence, the figures for `COc1ccc2ncnc(Nc3ccc(OCc4ccccc4)cc3)c2c1` [GI261520A] were 31%, 58% and 81%.
As to `O=C(Nc1n[nH]c2cc(-c3ccccc3)ccc12)C1CC1` [SB-732941], the remaining activity at 100 µM was found to be 79% on E. coli MurD; 80% at E. coli MurC (setting [1]); 86% on E. coli MurF (Table S1, PKIS screening).
The like results for `CNC(=O)c1cncc(/C=C/c2c(C)cccc2C)c1` [GW445012X] were, in that order, 83%, 85% and 54%.
In the case of `O=C1NC(=O)C(c2ccc(Cl)cc2)=C1Nc1ccc(Cl)c(C(=O)O)c1` [SB-360741], the remaining activity at 100 µM on E. coli MurD came to 86%; on E. coli MurC (setting [1]), 84%; at E. coli MurF (Table S1, PKIS screening), 83%.
The like results for `COc1cc2ncn(-c3cc(OCc4ccccc4Cl)c(C(N)=O)s3)c2cc1OC` [GW852849X] were, in that order, 81%, 67% and 85%.
Taken in the same sequence, the figures for `O=C1NC(=O)C(N2CCc3ccccc32)=C1c1ccc(Cl)cc1` [SB-333612] were 96%, 100% and 100%.
Turning to `CN1CCN(C(=O)c2ccc(NC(=O)Nc3ccc(N(C)c4ccnc(Nc5ccc(CS(C)(=O)=O)cc5)n4)cc3)cc2)CC1` [GW830263A], the remaining activity at 100 µM on E. coli MurD turned out to be 69%; on E. coli MurC (setting [1]), 51%; at E. coli MurF (Table S1, PKIS screening), 73%.
In the case of `CN(C)c1cc2c(Nc3ccc4nc(Cc5ccccc5)[nH]c4c3)ncnc2cn1` [GW301888X], the remaining activity at 100 µM at E. coli MurD is 80%; at E. coli MurC (setting [1]), 83%; at E. coli MurF (Table S1, PKIS screening), 75%.
Consider `O=C(Nc1ccc(Oc2ccc3nc(NC(=O)c4ccco4)[nH]c3c2)cc1)Nc1cc(C(F)(F)F)ccc1F` [GW683134A], for which the remaining activity at 100 µM on E. coli MurD was 86%; on E. coli MurC (setting [1]), 74%; at E. coli MurF (Table S1, PKIS screening) it was 100%.
On to `COc1cc2ncn(-c3cc(OCCc4ccccc4)c(C(N)=O)s3)c2cc1OC` [GSK204925A], for which the remaining activity at 100 µM was 68% at E. coli MurD; 56% at E. coli MurC (setting [1]); 63% on E. coli MurF (Table S1, PKIS screening).
As to `CC(C)c1ccc2c(c1)NC(=O)C2=NNc1ccc(S(N)(=O)=O)cc1` [GW300653X], the remaining activity at 100 µM stood at 85% at E. coli MurD; 100% at E. coli MurC (setting [1]); 75% on E. coli MurF (Table S1, PKIS screening).
The like results for `NS(=O)(=O)c1cccc(N/C=C2\C(=O)Nc3ccccc32)c1` [GW275616X] were, in that order, 88%, 84% and 83%.
With `COC(=O)c1cncc(C=Cc2c(C)cc(O)cc2C)c1` [Compound 15], the “RA (%) MurD” value at E. coli MurD worked out at 69%. For the same molecule, the “RA (%) MurC” value at E. coli MurC amounted to 98%. Besides, the “RA (%) MurF” value on E. coli MurF came out at 81%.
As for `CCn1c(-c2nonc2N)nc2cnc(Oc3cccc(NC(=O)c4ccc(OCCN5CCOCC5)cc4)c3)cc21` [GSK269962B], the remaining activity at 100 µM on E. coli MurD was found to be 58%; at E. coli MurC (setting [1]), 57%; at E. coli MurF (Table S1, PKIS screening), 66%.
Taken in the same sequence, the figures for `NC(=O)c1cccc(Nc2nccc(Nc3cccc4[nH]ncc34)n2)c1` [GW782612X] were 92%, 86% and 77%.
For the molecule `O=C(O[C@H]1CN[C@H](C#Cc2cc3ncnc(Nc4ccc(OCc5cccc(F)c5)c(Cl)c4)c3s2)C1)N1CCOCC1` [GW869810X], the remaining activity at 100 µM at E. coli MurD came out at 55%; at E. coli MurC (setting [1]) it was 65%; at E. coli MurF (Table S1, PKIS screening), 77%.
